Measured values from patent US20240384268A1, “Oligonucleotides” (Hudson Institute of Medical Research, priority 2021, published 2024).

Target: T1, TLR8 (Homo sapiens, UniProt Q9NR97)
T1 sequence (Q9NR97 27-1041): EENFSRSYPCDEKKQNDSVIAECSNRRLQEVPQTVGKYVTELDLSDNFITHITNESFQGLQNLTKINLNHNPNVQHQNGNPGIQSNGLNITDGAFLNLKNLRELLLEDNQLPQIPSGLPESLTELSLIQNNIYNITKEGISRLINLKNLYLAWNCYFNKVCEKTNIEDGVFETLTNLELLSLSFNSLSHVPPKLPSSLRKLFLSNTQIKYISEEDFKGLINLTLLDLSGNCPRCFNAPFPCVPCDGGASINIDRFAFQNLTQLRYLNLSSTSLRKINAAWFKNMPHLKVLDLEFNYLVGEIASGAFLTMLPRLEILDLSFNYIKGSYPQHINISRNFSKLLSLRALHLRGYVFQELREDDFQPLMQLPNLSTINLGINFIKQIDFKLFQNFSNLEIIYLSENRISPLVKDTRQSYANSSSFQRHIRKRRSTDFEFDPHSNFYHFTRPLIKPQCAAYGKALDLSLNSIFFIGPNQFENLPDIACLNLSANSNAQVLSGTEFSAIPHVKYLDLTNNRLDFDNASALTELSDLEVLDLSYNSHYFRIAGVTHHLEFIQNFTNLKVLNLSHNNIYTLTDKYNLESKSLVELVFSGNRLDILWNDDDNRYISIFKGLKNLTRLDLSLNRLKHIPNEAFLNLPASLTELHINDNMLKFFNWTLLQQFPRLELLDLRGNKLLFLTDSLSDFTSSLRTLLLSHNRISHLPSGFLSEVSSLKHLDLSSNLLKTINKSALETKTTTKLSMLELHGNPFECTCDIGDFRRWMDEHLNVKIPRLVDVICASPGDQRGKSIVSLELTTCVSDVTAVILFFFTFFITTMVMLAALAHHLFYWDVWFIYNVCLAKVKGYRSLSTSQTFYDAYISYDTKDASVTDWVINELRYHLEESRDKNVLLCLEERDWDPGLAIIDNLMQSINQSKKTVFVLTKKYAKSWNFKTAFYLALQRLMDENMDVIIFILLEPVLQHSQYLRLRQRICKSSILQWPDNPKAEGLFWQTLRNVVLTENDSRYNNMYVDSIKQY
Experiment: HEK-TLR8 NF-κB-luciferase reporter, R848 or Motolimod stimulation (potentiation or inhibition)
Format: cell-based
Set-up: expressed in transfected cells; host or cells: 293XLhTLR8 (HEK293)
Details: averaged NF-κB-Luciferase relative to R848 condition (fold increase); for TLR8 100 nM: MOE-modified ASO at 100 nM; for TLR8 500 nM: MOE-modified ASO at 500 nM

Sequence | TLR8 100 nM | TLR8 500 nM
AACACTTCGTGGGGTCCTTT (antisense; 2'-MOE modified, pattern not given here) [HPRT-664 MOE] | 2.725 | 3.167
AATCCGCCCAAAGGGAACTG (antisense; 2'-MOE modified, pattern not given here) [HPRT-1027 MOE] | 2.685 | 4.659
ACAACCCCTTTCACCATCCC (antisense; 2'-MOE modified, pattern not given here) [MB21D1-689 MOE] | 8.841 | 14.808
ACAGTGTTGAGATACTCGGG (antisense; 2'-MOE modified, pattern not given here) [EGFR-3652 MOE] | 5.681 | 8.261
ACCCACTTGGCAGACCATCA (antisense; 2'-MOE modified, pattern not given here) [CTNN2B-1575 MOE] | 2.822 | 3.985
ACTGACTGTCTTGAGGGTTC (antisense; 2'-MOE modified, pattern not given here) [MB21D1-1483 MOE] | 2.454 | 3.185
AGATCTGGCAGCCCATCAAC (antisense; 2'-MOE modified, pattern not given here) [CTNN2B-2516 MOE] | 3.069 | 4.465
AGGTCTTGGCTTCGTGGAGC (antisense; 2'-MOE modified, pattern not given here) [MB21D1-522 MOE] | 3.657 | 5.064
ATCCAACACTTCGTGGGGTC (antisense; 2'-MOE modified, pattern not given here) [HPRT-668 MOE] | 1.437 | 1.519
ATGTCCCCTGTTGACTGGTC (antisense; 2'-MOE modified, pattern not given here) [HPRT-489 MOE] | 1.752 | 2.118
ATGTCCCGCCACTGGATGCT (antisense; 2'-MOE modified, pattern not given here) [EGFR-727 MOE] | 2.029 | 1.708
ATGTGATGGCCTCCCATCTC (antisense; 2'-MOE modified, pattern not given here) [HPRT-333 MOE] | 0.939 | 1.429
CAACACTTCGTGGGGTCCTT (antisense; 2'-MOE modified, pattern not given here) [HPRT-665 MOE] | 1.320 | 1.639
CAAGGCCCTTCGCACTTCTT (antisense; 2'-MOE modified, pattern not given here) [EGFR-1225 MOE] | 1.115 | 1.236
CAATGTGATGGCCTCCCATC (antisense; 2'-MOE modified, pattern not given here) [HPRT-335 MOE] | 1.518 | 1.677
CACCCACTTGGCAGACCATC (antisense; 2'-MOE modified, pattern not given here) [CTNN2B-1576 MOE] | 1.440 | 1.502
CAGATAGCACCTTCAGCACT (antisense; 2'-MOE modified, pattern not given here) [CTNN2B-1294 MOE] | 1.773 | 2.356
CCAACACTTCGTGGGGTCCT (antisense; 2'-MOE modified, pattern not given here) [HPRT-666 MOE] | 1.223 | 1.185
CGTGTCTGGAAGCTTCCTTT (antisense; 2'-MOE modified, pattern not given here) [CTNN2B-808 MOE] | 1.476 | 1.222
CTCTTGAAGCATCGTATCAC (antisense; 2'-MOE modified, pattern not given here) [CTNN2B-3648 MOE] | 1.650 | 2.200
CTGTGATCTTGACATGCTGC (antisense; 2'-MOE modified, pattern not given here) [EGFR-2790 MOE] | 1.308 | 1.387
CTTACTTTCCGAGGTGTCCA (antisense; 2'-MOE modified, pattern not given here) [CAMSAP1-1739 MOE] | 3.892 | 4.827

Sequence | TLR8 100 nM | TLR8 500 nM
GAACCACGTCTGCTCTAACA (antisense; 2'-MOE modified, pattern not given here) [CAMSAP1-1635 MOE] | 2.787 | 3.827
GAGGTCTTGGCTTCGTGGAG (antisense; 2'-MOE modified, pattern not given here) [MB21D1-523 MOE] | 1.822 | 2.164
GAGTCTCTGGAGCTTCCTCT (antisense; 2'-MOE modified, pattern not given here) [CAMSAP1-2456 MOE] | 0.849 | 0.683
GATGCTCCTCGGTCTCCCTT (antisense; 2'-MOE modified, pattern not given here) [CAMSAP1-1850 MOE] | 1.392 | 1.954
GATGGCCTCCCATCTCCTTC (antisense; 2'-MOE modified, pattern not given here) [HPRT-329 MOE] | 0.979 | 1.698
GCCGCTTTTCTGTCTGGTTC (antisense; 2'-MOE modified, pattern not given here) [CTNN2B-311 MOE] | 0.968 | 0.369
GCGACTATACGCGCAATATG (antisense; 2'-MOE modified, pattern not given here) [NC5 2′MOE] | 1.067 | 0.883
GCGGAGGTCTTGGCTTCGTG (antisense; 2'-MOE modified, pattern not given here) [MB21D1-526 MOE] | 1.598 | 2.226
GCGTATTATAGCCGATTAAC (antisense; 2'-MOE modified, pattern not given here) [NC1 2′MOE] | 1.883 | 2.777
GCGTGTCTGGAAGCTTCCTT (antisense; 2'-MOE modified, pattern not given here) [CTNN2B-809 MOE] | 1.179 | 0.494
GCTTCAGGCGCTGCCTTGCC (antisense; 2'-MOE modified, pattern not given here) [CAMSAP1-2709 MOE] | 0.985 | 0.620
GGAGATTTCAGAGCAGCTTC (antisense; 2'-MOE modified, pattern not given here) [EGFR-4885 MOE] | 3.122 | 4.308
GGAGCTTCGAGGCCCCAGGC (MOE modified, pattern not given here) [MB21D1-616 MOE] | 0.760 | 0.380
GGAGGTCTTGGCTTCGTGGA (antisense; 2'-MOE modified, pattern not given here) [MB21D1-524 MOE] | 3.976 | 5.288
GGCATCCACCACGTCGTCCA (antisense; 2'-MOE modified, pattern not given here) [EGFR-3266 MOE] | 1.619 | 1.566
GGGAAAGGTTATGCAAGGTC (antisense; 2'-MOE modified, pattern not given here) [CTNN2B-916 MOE] | 3.117 | 3.500
GGTCCATACCCAAGGCATCC (antisense; 2'-MOE modified, pattern not given here) [CTNN2B-2446 MOE] | 1.901 | 2.107
GGTGGTCCACAACCCCTTTC (antisense; 2'-MOE modified, pattern not given here) [MB21D1-697 MOE] | 2.121 | 3.700
GGTGGTGGCCACCCATCTCA (antisense; 2'-MOE modified, pattern not given here) [CTNN2B-2479 MOE] | 1.491 | 0.874
GGTGTCCTTGCACGTGGCTT (antisense; 2'-MOE modified, pattern not given here) [EGFR-1016 MOE] | 1.532 | 1.019
GTCCACATCCTGTGGCTCGT (antisense; 2'-MOE modified, pattern not given here) [CAMSAP1-2906 MOE] | 0.919 | 0.493
